The subject of assay [1] is methicillin resistant Staphylococcus aureus (MRSA) (WKZ-2, human clinical isolate). Nature of the assay: Bacterial growth delay (Bioscreen C), MRSA. Format: cell-based. The settings on record: for Cmax, MRSA, DMEM / Summary class, antimicrobial activity S. aureus DMEM / Max: hours growth delay with 20 μM cathelicidin, MRSA, DMEM: DMEM + FCS; for Cmax, MRSA, DMEM / Cmax, MRSA, MHB: 1 × 10^6 CFU/ml, peptide 0.31-20 μM, 16 h, 37 °C, — = no Cmax reached up to 20 μM; for Cmax, MRSA, DMEM / Cmax, MRSA, MHB / Max: hours growth delay with 20 μM cathelicidin, MRSA, DMEM / Max: hours growth delay with 20 μM cathelicidin, MRSA, MHB: N = 4; for Summary class, antimicrobial activity S. aureus DMEM / Summary class, antimicrobial activity S. aureus MHB: MRSA, − is not defined in the key; for Max: hours growth delay with 20 μM cathelicidin, MRSA, DMEM / Max: hours growth delay with 20 μM cathelicidin, MRSA, MHB: 20 μM peptide, given if no Cmax was reached. As for the experimental part:
E. coli O78 (Zoetis Animal Health, Kalamazoo, MI, USA), E. coli ATCC 25922, Staphylococcus aureus ATCC 29213, and methicillin resistant Staphylococcus aureus (MRSA) (WKZ-2, human clinical isolate) were grown overnight from a glycerol stock in Mueller Hinton Broth (MHB) (Becton Dickinson, USA). Before use, bacteria were grown to mid-log phase in MHB for 2 hours at 37 °C, 200 RPM. Murine RAW264.7 macrophages (ATCC-TIB-71) were obtained from the American Type Culture Collection (ATCC, Manassas, VA, USA) and cultured in DMEM (41966-029; Thermo Fisher Scientific, Waltham, MA, USA) supplemented with 10% FCS (Bodinco B.V., Alkmaar, the Netherlands) (DMEM + FCS) at 37 °C, 5.0% CO2. Cells were seeded in 96-wells plates at 5 × 10^5 cells/ml or 12-wells plates at 2 × 10^5/ml for adherence overnight prior to stimulation.
Peptides (0.63 to 40 μM) and bacteria mid-log cultures (2 * 10^6 CFU/ml) were prepared in MHB or DMEM + FCS and mixed (100 μl peptide + 100 μl bacterial culture) in a Bioscreen C analyzer plate (Oy Growth Curves Ab Ltd, Helsingfors, Finland). Plates were placed in a Bioscreen C analyzer (Oy Growth Curves Ab Ltd) and bacteria were grown for 16 h at 37 °C with 200 RPM. The OD was measured every 15 minutes using a wideband filter (450–580 nm) to measure bacterial growth. The time needed grow above an OD of 0.6 was determined for all concentrations. Activity of peptides was expressed as the Cmax, the concentration of peptide required to delay the growth for 10 h compared to the control. Or, for peptides with low activity (no Cmax), activity was expressed as the hours of growth delay at 20 μM. Unlike the classic MIC and MBC determination used in microbiology, this method also enabled comparison of peptides with low antibacterial activity.
Twelve cathelicidins from 6 different species were selected for this study, namely: human LL-37, murine CRAMP, dog K9CATH, equine CATH (eCATH)-1, -2 and -3, chicken CATH (chCATH)-1, -2, and -3, porcine PMAP-23 and -36 and PR-39 (Table 1). Antimicrobial activity against E. coli and MRSA was directly compared under standardized conditions in MHB, a medium optimized for bacterial growth. Bacterial growth delay was defined as the delay in hours for peptide-treated bacteria to reach an OD of 0.6, compared to the non-treated control. Cmax is the minimal concentration needed to delay growth for a minimum of 10 hours compared to the non-treated control (Table 1 and Fig. 1A).
Figure 1 Antibacterial activity of cathelicidins. E. coli and MRSA (1 × 10^6 CFU/ml) of were grown in MHB or DMEM ± FCS for 16 hours under constant shaking (200 RPM). Every 15 minutes the OD was measured. Growth delay was defined as the time needed for peptide-treated bacteria to grow above an OD of 0.6 compared to the control bacteria (no peptide added) (A). Cathelicidins were tested in different concentrations (0.31 μM, 0.63 μM, 1.25 μM, 2.5 μM, 5 μM, 10 μM, and 20 μM) to determine the antimicrobial activity in MHB against E. coli (B) or MRSA (C) and in more physiological medium DMEM + FCS (D,E). Results are presented as average +/− SEM (N = 4).

The next assay has as its system RAW264.7 cells. Kind of assay: Phagocytosis assay with fluorescent latex beads. In kind it is cell-based, murine. The conditions noted are these: 30 min; for Effect on bead uptake (phagocytosis), in words / Summary class, phagocytosis: latex beads 10 per cell; for Effect on bead uptake (phagocytosis), in words: peptide 0.31, 1.25 and 5 μM; for Summary class, phagocytosis: 37 °C, MFI corrected for 0 °C, peptide 0.31-5 μM, − = no significant effect, N = 3. The procedure:
Red fluorescent (λex 575 nm and λem 610 nm) carboxylate-modified polystyrene latex beads (0.5 μm; Sigma Aldrich, St. Louis, MO, USA) were washed three times with PBS and resuspended in culture medium. Peptide dilutions were prepared in culture medium and added to RAW264.7 cells, directly followed by the latex beads (ratio 10 beads to 1 cell). Cells were incubated for 30 minutes at 37 °C, 5% CO2 (energy-dependent uptake) or 0 °C (non-specific adherence), after which cells were washed extensively with ice-cold PBS supplemented with 1% FCS and 0.01% NaN3, to remove all free beads. After washing, cells were scraped and resuspended in FACS buffer (PBS supplemented with 0.5% BSA). Samples were measured with the BD FACSCanto II flow cytometer (BD Biosciences, San Jose, CA, USA) and analyzed with FlowJo software (Ashland, OR, USA). Mean fluorescence intensity (MFI), corrected for non-specific adherence, was used as an indicator for the number of beads taken up.
While the above-described functions of cathelicidins are well-known, relatively little is known about the influence of cathelicidins on phagocytosis. Therefore, RAW264.7 cells were incubated with fluorescent beads to study the effect of cathelicidins on phagocytosis. The uptake was corrected for fluorescence measured after incubation on ice instead of 37 °C, which inhibits the active process of phagocytosis. After 30 minutes, 90% of the RAW264.7 cells took up latex beads (Fig. 4A). Histograms exemplify changes in bead phagocytosis with different concentrations of K9CATH (Fig. 4B), eCATH-2 (Fig. 4C) and chCATH-3 (Fig. 4D). Effect of all cathelicidins are depicted by the average mean fluorescence intensity (MFI) in Fig. 4E.
Figure 4 Effects of cathelicidins on phagocytosis by RAW264.7 cells. RAW264.7 cells were incubated with cathelicidins (0.31 μM, 1.25 μM, and 5 μM) and red fluorescent latex beads (10 beads to 1 cell) at 37 °C (energy dependent uptake) or on ice (non-specific adherence) for 30 minutes. Histograms show control (no peptide present) bead uptake at 37 °C (gray, filled) and 0 °C (black line) (A), or uptake in presence of different concentrations of indicated cathelicidins (B–D); 0 μM (red, filled), 0.31 μM (black line), 1.25 μM (green line) or 5 μM (blue line). Uptake was quantified by determining the MFI after correction for 0 °C control (E). Results are presented as average +/− SEM (N = 3). Statistical differences were determined by Two-way ANOVA with Bonferroni post-hoc test.

Regarding “RVKRFWPLVPVAINTVAAGINLYKAIRRK [chCATH-3, chicken CATH-3, 29 residues, charge +7]”, in assay [1], the “Cmax, MRSA, DMEM” value turned out to be 0.31 µM and the “Summary class, antimicrobial activity S. aureus DMEM” value was “+++ (+++ = Cmax at ≤20 μM)”. Also, in assay [1] (MHB), the “Cmax, MRSA, MHB” value came to 5 µM and the “Summary class, antimicrobial activity S. aureus MHB” value is given as “+++ (+++ = Cmax at ≤20 μM)”. In the assay on RAW264.7 cells, the “Effect on bead uptake (phagocytosis), in words” value (“Effect on bead uptake” for short) is listed as “did not affect bead uptake”.
Turning to “Ac-GRFRRLRKKTRKRLKKIGKVLKWIPPIVGSIPLGCG [PMAP-36, porcine α-helical cathelicidin, N-acetylated, 36 residues, charge +13]”, in assay [1], the “Cmax, MRSA, DMEM” value came to 0.31 µM and the “Summary class, antimicrobial activity S. aureus DMEM” value was “+++ (+++ = Cmax at ≤20 μM)”. Besides, in assay [1] (MHB), the “Cmax, MRSA, MHB” value was 10 µM and the “Summary class, antimicrobial activity S. aureus MHB” value was “+++ (+++ = Cmax at ≤20 μM)”. Further, in the assay on RAW264.7 cells, the “Summary class, phagocytosis” value is on record as “↓↓ (↓↓ = significant decrease ≤5 μM)” and the “Effect on bead uptake” value is reported as “only reduced phagocytosis at 5 μM”.
Consider “GLLRKGGEKIGEKLKKIGQKIKNFFQKLVPQPEQ [CRAMP, murine cathelicidin, 34 residues, charge +6]”, for which, in assay [1], the “Max: hours growth delay with 20 μM cathelicidin, MRSA, DMEM” value (“Max: hours growth delay … DMEM” below) is 6.5 h and the “Summary class, antimicrobial activity S. aureus DMEM” value is recorded as “+ (+ = >4 hours inhibition at 20 μM)”. For the same substance, in assay [1] (MHB), the “Max: hours growth delay with 20 μM cathelicidin, MRSA, MHB” value (“Max: hours growth delay … MHB” below) turned out to be 0.5 h. In the assay on RAW264.7 cells, the “Summary class, phagocytosis” value is “↓↓ (↓↓ = significant decrease ≤5 μM)” and the “Effect on bead uptake” value is given as “reduced bead-uptake in a dose-dependent manner”.
Consider “RIIDLLWRVRRPQKPKFVTVWVR [PMAP-23, porcine α-helical cathelicidin, 23 residues, charge +6]”, for which, in assay [1], the “Cmax, MRSA, DMEM” value was determined as 10 µM and the “Summary class, antimicrobial activity S. aureus DMEM” value is recorded as “+++ (+++ = Cmax at ≤20 μM)”. In addition, in assay [1] (MHB), the “Cmax, MRSA, MHB” value stood at 20 µM and the “Summary class, antimicrobial activity S. aureus MHB” value is recorded as “+++ (+++ = Cmax at ≤20 μM)”. In the assay with RAW264.7 cells, the “Summary class, phagocytosis” value is on record as “↓↓ (↓↓ = significant decrease ≤5 μM)” and the “Effect on bead uptake” value was “reduced bead-uptake in a dose-dependent manner”.
With “RFGRFLRKIRRFRPKVTITIQGSARF-NH2 [chCATH-2, chicken CATH-2, C-terminal amide, 26 residues, charge +9]”, in assay [1], the “Cmax, MRSA, DMEM” value was 0.31 µM and the “Summary class, antimicrobial activity S. aureus DMEM” value is listed as “+++ (+++ = Cmax at ≤20 μM)”. Also, in assay [1] (MHB), the “Cmax, MRSA, MHB” value was found to be 2.5 µM and the “Summary class, antimicrobial activity S. aureus MHB” value is reported as “+++ (+++ = Cmax at ≤20 μM)”. In addition, in the assay with RAW264.7 cells, the “Summary class, phagocytosis” value was “↓↓ (↓↓ = significant decrease ≤5 μM)” and the “Effect on bead uptake” value was “reduced bead-uptake in a dose-dependent manner”.
For the substance “RRRPRPPYLPRPRPPPFFPPRLPPRIPPGFPPRFPPRFP [PR-39, porcine proline-rich cathelicidin forming a polyproline helix, 39 residues, charge +10]”, in assay [1], the “Cmax, MRSA, DMEM” value turned out to be 10 µM and the “Summary class, antimicrobial activity S. aureus DMEM” value was “+++ (+++ = Cmax at ≤20 μM)”. Further, the “Activity against MRSA in MHB, in words” value in assay [1] (MHB, peptide up to 20 μM) is listed as “no effect”. Further, in assay [1] (MHB), the “Max: hours growth delay … MHB” value is 0.5 h. For the same substance, in the assay on RAW264.7 cells, the “Effect on bead uptake” value is given as “did not affect bead uptake”.
For the substance “RLKELITTGGQKIGEKIRRIGQRIKDFFKNLQPREEKS [Peptide K9CATH, dog cathelicidin, 38 residues, charge +6]”, in assay [1], the “Max: hours growth delay … DMEM” value is 4.5 h and the “Summary class, antimicrobial activity S. aureus DMEM” value was “+ (+ = >4 hours inhibition at 20 μM)”. In assay [1] (MHB), the “Max: hours growth delay … MHB” value was 0.5 h. Also, in the assay on RAW264.7 cells, the “Summary class, phagocytosis” value is “↓↓ (↓↓ = significant decrease ≤5 μM)” and the “Effect on bead uptake” value is on record as “reduced bead-uptake in a dose-dependent manner”.
For “KRRHWFPLSFQEFLEQLRRFRDQLPFP [eCATH-2, equine CATH-2, 27 residues, charge +4]”, in assay [1], the “Max: hours growth delay … DMEM” value came out at 3.5 h. The “Max: hours growth delay … MHB” value in assay [1] (MHB) came to 1.5 h. Besides, the “Increase of bead uptake” value with RAW264.7 cells (latex beads, not significant) is approximately 50%.

Source of the values: paper PMC5244392, “Interspecies cathelicidin comparison reveals divergence in antimicrobial activity, TLR modulation, chemokine induction and regulation of phagocytosis” (Scientific Reports, 2017).
